The values below come from patent publication US20060128716A1, “Use of 4-pyridylmethyl-phthalazine derivatives for the manufacture of a medicament for the treatment of myelodysplastic syndromes” (priority 2002, published 2006).

One experiment deals with advanced MDS. As to the kind of experiment: Clinical example: oral PTK787 in patients with untreated advanced MDS. The format is in vivo, human.
Another experiment addresses Flt-4 (Homo sapiens, UniProt P35916). The note with it: statement in words, no test described; cited from earlier work.
A further experiment concerns the target c-Kit (Homo sapiens, UniProt P10721). The note with it: statement in words, no test described; cited from earlier work.
For a further experiment, the target named is Flt-1 (Homo sapiens, UniProt P17948). Conditions: statement in words, no test described; cited from earlier work.
Sequence of Flt-1 (P17948 27-1338, species assumed): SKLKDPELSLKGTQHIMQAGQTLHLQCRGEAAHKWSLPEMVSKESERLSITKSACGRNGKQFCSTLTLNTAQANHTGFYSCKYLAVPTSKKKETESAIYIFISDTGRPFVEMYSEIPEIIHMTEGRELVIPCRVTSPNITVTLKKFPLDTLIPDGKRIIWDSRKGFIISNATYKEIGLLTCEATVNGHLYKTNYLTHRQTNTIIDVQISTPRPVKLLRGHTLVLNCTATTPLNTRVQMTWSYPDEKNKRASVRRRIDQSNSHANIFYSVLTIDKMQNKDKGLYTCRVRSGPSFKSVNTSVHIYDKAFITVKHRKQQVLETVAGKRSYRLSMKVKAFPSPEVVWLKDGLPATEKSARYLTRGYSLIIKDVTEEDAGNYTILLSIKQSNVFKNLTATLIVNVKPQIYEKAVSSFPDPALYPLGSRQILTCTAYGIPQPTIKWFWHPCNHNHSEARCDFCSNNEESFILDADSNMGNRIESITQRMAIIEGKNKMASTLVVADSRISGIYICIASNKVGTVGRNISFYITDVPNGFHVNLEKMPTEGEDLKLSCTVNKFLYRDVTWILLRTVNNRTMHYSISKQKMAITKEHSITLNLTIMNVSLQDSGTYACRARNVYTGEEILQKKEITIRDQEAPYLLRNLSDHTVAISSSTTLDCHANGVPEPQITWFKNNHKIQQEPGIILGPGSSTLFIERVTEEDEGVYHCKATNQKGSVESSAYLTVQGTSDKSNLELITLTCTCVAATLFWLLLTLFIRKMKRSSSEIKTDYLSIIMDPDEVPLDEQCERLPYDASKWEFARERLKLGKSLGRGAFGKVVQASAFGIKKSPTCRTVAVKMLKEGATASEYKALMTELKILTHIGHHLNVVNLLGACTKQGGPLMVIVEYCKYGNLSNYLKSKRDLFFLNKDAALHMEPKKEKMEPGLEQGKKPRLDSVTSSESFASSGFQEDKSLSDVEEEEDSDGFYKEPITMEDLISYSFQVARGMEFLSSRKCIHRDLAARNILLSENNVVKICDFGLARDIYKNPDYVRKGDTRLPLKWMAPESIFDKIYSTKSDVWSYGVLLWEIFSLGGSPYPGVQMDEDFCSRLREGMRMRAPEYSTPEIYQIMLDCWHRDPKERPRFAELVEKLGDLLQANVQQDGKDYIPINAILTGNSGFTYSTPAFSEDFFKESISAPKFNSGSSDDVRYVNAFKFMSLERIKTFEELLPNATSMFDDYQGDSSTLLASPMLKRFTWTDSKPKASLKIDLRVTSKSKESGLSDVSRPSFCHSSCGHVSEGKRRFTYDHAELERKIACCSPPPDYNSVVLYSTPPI

Sequence of Flt-4 (P35916 25-1363, species assumed): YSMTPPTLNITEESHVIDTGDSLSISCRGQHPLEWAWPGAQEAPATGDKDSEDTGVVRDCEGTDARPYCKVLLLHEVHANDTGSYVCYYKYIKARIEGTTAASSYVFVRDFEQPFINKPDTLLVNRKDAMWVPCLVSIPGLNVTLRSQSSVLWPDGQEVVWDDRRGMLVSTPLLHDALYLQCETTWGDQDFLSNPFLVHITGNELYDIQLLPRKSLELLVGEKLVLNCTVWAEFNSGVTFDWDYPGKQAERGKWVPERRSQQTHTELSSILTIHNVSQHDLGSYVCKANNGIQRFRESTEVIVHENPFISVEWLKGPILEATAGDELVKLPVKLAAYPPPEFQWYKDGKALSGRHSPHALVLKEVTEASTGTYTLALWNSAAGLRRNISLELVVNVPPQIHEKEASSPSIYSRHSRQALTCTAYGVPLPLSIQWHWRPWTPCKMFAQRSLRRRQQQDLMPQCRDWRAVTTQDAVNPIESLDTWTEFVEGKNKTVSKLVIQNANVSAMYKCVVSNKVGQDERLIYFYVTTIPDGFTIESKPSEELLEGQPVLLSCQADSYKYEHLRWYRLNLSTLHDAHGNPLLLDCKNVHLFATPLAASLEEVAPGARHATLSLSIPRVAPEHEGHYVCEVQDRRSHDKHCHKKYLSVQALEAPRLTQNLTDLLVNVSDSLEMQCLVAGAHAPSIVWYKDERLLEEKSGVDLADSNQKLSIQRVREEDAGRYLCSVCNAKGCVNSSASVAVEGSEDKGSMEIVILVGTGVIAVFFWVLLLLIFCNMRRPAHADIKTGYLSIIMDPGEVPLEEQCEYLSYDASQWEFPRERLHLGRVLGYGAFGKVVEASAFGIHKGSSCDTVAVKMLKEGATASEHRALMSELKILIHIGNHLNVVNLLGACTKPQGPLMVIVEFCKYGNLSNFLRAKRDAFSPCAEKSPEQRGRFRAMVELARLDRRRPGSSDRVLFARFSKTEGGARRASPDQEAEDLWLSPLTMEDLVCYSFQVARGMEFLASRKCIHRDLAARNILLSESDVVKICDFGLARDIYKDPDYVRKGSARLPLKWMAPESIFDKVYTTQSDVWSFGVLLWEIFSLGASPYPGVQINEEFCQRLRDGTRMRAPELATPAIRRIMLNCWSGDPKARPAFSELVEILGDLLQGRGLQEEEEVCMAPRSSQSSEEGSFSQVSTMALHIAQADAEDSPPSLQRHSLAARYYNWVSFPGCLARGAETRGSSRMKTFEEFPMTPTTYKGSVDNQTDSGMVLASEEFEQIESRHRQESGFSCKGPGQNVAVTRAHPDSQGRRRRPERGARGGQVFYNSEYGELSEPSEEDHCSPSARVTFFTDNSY
Sequence of c-Kit (P10721 26-976): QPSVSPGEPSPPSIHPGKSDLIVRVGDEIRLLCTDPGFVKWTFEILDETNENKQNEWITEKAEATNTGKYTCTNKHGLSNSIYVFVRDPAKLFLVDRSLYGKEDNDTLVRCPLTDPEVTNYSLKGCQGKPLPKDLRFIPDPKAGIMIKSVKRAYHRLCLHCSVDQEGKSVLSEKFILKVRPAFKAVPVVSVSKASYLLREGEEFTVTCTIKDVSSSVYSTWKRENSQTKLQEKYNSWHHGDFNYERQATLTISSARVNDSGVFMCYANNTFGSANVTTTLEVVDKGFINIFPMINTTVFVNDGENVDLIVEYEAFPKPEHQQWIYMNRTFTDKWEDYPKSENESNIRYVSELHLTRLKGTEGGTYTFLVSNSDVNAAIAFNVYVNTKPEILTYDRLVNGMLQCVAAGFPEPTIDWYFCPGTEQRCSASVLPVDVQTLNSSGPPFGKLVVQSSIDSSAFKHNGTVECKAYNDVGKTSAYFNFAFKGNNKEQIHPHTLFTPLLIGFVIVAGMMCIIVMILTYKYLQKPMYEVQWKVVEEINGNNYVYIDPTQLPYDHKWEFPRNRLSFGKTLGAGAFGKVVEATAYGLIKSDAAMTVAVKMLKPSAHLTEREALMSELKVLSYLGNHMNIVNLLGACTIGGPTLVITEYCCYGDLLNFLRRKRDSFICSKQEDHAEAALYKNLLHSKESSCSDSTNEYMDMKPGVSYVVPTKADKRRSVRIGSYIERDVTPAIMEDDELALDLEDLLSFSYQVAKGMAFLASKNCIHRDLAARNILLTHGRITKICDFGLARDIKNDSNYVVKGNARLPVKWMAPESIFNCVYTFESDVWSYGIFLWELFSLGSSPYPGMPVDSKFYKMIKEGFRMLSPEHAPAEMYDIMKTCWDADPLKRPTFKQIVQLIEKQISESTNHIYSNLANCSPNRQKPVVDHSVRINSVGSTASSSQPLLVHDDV

In the case of `Clc1ccc(Nc2nnc(Cc3ccncc3)c3ccccc23)cc1` [PTK787], the “disease progression in patients with MDS” value in the experiment on advanced MDS (in at least some patients with MDS) is “slows disease progression”. Further, the “patients with MDS showing stable disease with excellent performance status” value in the experiment on advanced MDS (of twelve patients, 500 or 750 mg orally twice daily) is on record as “Two”. Moreover, the bone marrow blasts result in the experiment with advanced MDS (one patient with baseline 18% bone marrow blasts, remained for 8 months, 500 or 750 mg orally twice daily) is recorded as “under 30%”; in the experiment on advanced MDS (second patient with baseline 11.5% blasts, remained for 4 months, 500 or 750 mg orally twice daily) it was no more than 16%. The “inhibition of Flt-4” value at Flt-4 is on record as “can also inhibit”. On c-Kit, the “activity against c-Kit” value is “has activity against other tyrosine kinase receptors”. Besides, the “inhibition of Flt-1” value at Flt-1 is “can also inhibit”.
